We go through 3 molecules from patent EP0167954A2, “1-Hydroxy-cytorhodines, a microbiological method for their preparation and their use as cytostatic agents” (HOECHST AKTIENGESELLSCHAFT, priority 1984, dated 1986).

In brackets after ≈: the same amount, converted by molar mass. Like-named read-outs stand apart in the source and are kept apart here.

In assay [1] the test system is L1210 Leukämiezellen der Maus. Briefly: Proliferation assay (incorporation of C14-labelled thymidine). The class given is cell-based. The settings on record: Mus musculus. The source says:
(§1) Die Bestimmung der zytostatischen Wirksamkeit der hier beschriebenen Verbindungen erfolgte an L1210 Leukämiezellen der Maus. Im einzelnen wurden folgende Testsysteme verwendet:
Bei dieser Methode wird in vitro nach Inkubation der Zellen mit unterschiedlichen Konzentrationen der Testsubstanz ermittelt, inwieweit die Zellen radioaktive DNA-Vorläufer (z.B. C14 markiertes Thymidin) einbauen können. Unbehandelte L1210 Zellen werden den gleichen Testbedingungen unterworfen und dienen als Kontrolle. Im folgenden ist die Methode kurz beschrieben.
L1210 Zellen in exponentieller Wachstumsphase (5 x 10^3/ml in RPMI 1640) werden in einer Mikrotiterplatte 72 Stunden mit unterschiedlichen Konzentrationen der Testsubstanz inkubiert (37°C, 5 % C021 95 % relative Luftfeuchte). Kontrolle bestehen aus Zellen, die lediglich mit frischem Medium inkubiert werden. Alle Bestimmungen werden als 4fach Bestimmungen durchgeführt. Nach 65 Stunden werden 50 µl C-1 14 Thymidin (1,5 µc/ml) zugegeben, um die DNA der Zelle radioaktiv zu markieren. Nach 7 Stunden Inkubation werden die Zellen abgesaugt, die DNA mit 5%iger Trichloressigsäure gefällt und nacheinander mit Wasser bzw. Methanol gewaschen.
Nach Trocknung bei 50°C wird die in die DNA eingebaute Radioaktivität nach Zugabe von 5 ml Szintillationsflüssigkeit ermittelt.
Die Ergebnisse werden angegeben als Verhältnis des Szintillationsindex nach Inkubation mit der Testsubstanz in Prozent der unbehandelten Kontrolle. Aus den so erhaltenen Meßwerten wird die Dosiswirkungskurve ermitelt und graphisch die IC50, d.h. die Konzentration, die unter Testbedingungen den Einbau von radioaktivem Thymidin um 50 % gegenüber der Kontrolle erniedrigt, ermittelt. Die IC50 Werte der hier beschriebenen Verbindungen im Vergleich zu Adriamycin (ADM) werden in der Tabelle 1 zusammengefaßt.

For assay [2], the system named is L1210 Leukämiezellen. Briefly: Colony formation of L1210 leukaemia cells in soft agar. The settings on record: Mus musculus. The class given is cell-based, Maus.
Text: as §1
b) Koloniebildung von L1210 Leukämiezellen in soft agar.
Diese Methode dient zum Nachweis eines Einflusses der Testsubstanzen auf das Wachstumsverhalten der Zellen über mehrere Generationen (bei einer Zellzykluszeit von 10-12 Stunden werden in der Testzeit von 7 Tagen ca. 14 aufeinanderfolgende Generationen beobachtet).
Zytostatisch wirksame Substanzen bewirken in diesem Test eine Reduktion der zu beobachtenden Koloniezahl gegenüber einer unbehandelten Kontrolle. Im einzelnen wird der Test wie folgt durchgeführt:
500 Leukämiezellen pro Platte werden mit unterschiedlichen Konzentrationen von Testsubstanz 1 Stunde bei 37°C inkubiert. Anschließend werden die Zellen zweimal mit McCoy5A Medium gewaschen und schließlich in Petrischalen nach Zusatz von 0,3 % Agar ausgegossen. Kontrollen werden lediglich mit frischem Medium inkubiert. Anstelle der lstündigen Inkubation werden in manchen Fällen unterschiedliche Konzentrationen und Testsubstanz der oberen Agarschicht zugemischt, um so eine kontinuierliche Exposition der Zellen über die gesamte Inkubationszeit zu erreichen. Nach Erstarren des Agars werden die Platten im Brutschrank 7 Tage bei 37°C inkubiert (5 % C02, 95 % relative Luftfeuchtigkeit). Anschließend wird die Anzahl der entstandenen Kolonien mit einem Durchmesser 60 p gezählt. Die Ergebnisse werden angegeben als Koloniezahl in behandelten Agarplatten in Prozent der unbehandelten Kontrolle. Aus der so erhaltenen Dosiswirkungskurve wird die IC50 als Maß für die Wirksamkeit der Substanz ermittelt. Die Ergebnisse für die hier beschriebenen Verbindungen im Vergleich zu Adriamycin sind in der Tabelle 1 zusammengefaßt.

[3] abbreviates: L1210, read-out: Proliferationstest IC50.
The mark [4] stands for this setting: L1210, 168 h, read-out: Koloniebildungstest IC50, 7 Tage Inkubation.
Setting [5] is: L1210, read-out: Koloniebildungstest IC50, 1 Stunde Inkubation.

As for `CCC1(O)CC(OC2CC(N(C)C)C(OC3CCC(OC4CCC(O)C(C)O4)C(C)O3)C(C)O2)c2c(O)c3c(c(O)c2C1OC1CC(N(C)C)C(OC2CCC(OC4CCC(O)C(C)O4)C(C)O2)C(C)O1)C(=O)c1c(O)ccc(O)c1C3=O` (stereo not drawn) [1-OH-Cytorhodin A, 1-Hydroxy-Cytorhodin A], the figures for the IC50 in assay [1] (setting [3]), in assay [2] (setting [4]) and in assay [2] (setting [5]) were 3 ng/mL (≈ 2.56 nM), 2.8 ng/mL (≈ 2.39 nM) and 26 ng/mL (≈ 22.2 nM), respectively.
With `CCC1(O)CC(OC2CC(N(C)C)C(OC3CCC(OC4C=CC(=O)C(C)O4)C(C)O3)C(C)O2)c2c(O)c3c(c(O)c2C1OC1CC(N(C)C)C(OC2CCC(OC4CCC(O)C(C)O4)C(C)O2)C(C)O1)C(=O)c1c(O)ccc(O)c1C3=O` (stereo not drawn) [1-OH-Cytorhodin V, 1-Hydroxy-Cytorhodin V], the IC50 came to 2.8 ng/mL (≈ 2.39 nM) in assay [1] (L1210 cells, 72 h incubation with test substance, C14 thymidine added after 65 h, IC50 read graphically, read-out: Proliferationstest IC50); 0.45 ng/mL (≈ 0.385 nM) in assay [2] (168 h, L1210 cells in soft agar, continuous exposure (substance mixed into upper agar layer), 7 days at 37°C, read-out: Koloniebildungstest IC50, 7 Tage Inkubation); 2.4 ng/mL (≈ 2.05 nM) in assay [2] (L1210 cells, 1 h incubation with substance at 37°C, washed, then 7 days in soft agar, read-out: Koloniebildungstest IC50, 1 Stunde Inkubation).
Consider `COc1cccc2c1C(=O)c1c(O)c3c(c(O)c1C2=O)C[C@@](O)(C(=O)CO)C[C@@H]3O[C@H]1C[C@H](N)[C@H](O)[C@H](C)O1` [ADM, Adriamycin, reference compound], for which the values for the IC50 in assay [1] (setting [3]), in assay [2] (setting [4]) and in assay [2] (setting [5]) were 6 ng/mL (≈ 11 nM), 22 ng/mL (≈ 40.5 nM) and 44 ng/mL (≈ 81 nM), respectively.
